Measured values: patent US20260317324A1, “BIFUNCTIONAL COMPOUNDS FOR DEGRADING BRAF VIA UBIQUITIN PROTEOSOME PATHWAY” (Nurix Therapeutics, Inc., priority 2023, published 2026)

Legend:
Format in all cases: cell-based
[1] = target: T1, BRAF V600E (Homo sapiens, UniProt P15056, V600E); assay: BRAF HiBiT degradation assay, C-terminal HiBiT-tagged BRAF V600E A375 cells (clone 1F10), Nano-Glo HiBiT Lytic assay; conditions: A375 (BRAF V600E, Class 1); for DC50: DC50 at 50% degradation; for Dmax: A-375, observed Dmax, % protein degraded relative to DMSO control
T1 construct: endogenous C-terminal HiBiT fusion tag on BRAF V600E allele; endogenous in cells; host or cells: A375 clone 1F10 (CRISPR-Cas9 knock-in of the HiBiT tag; parental A375 from ATCC)
T1 sequence (P15056 whole entry V600E, the tested form may be a part): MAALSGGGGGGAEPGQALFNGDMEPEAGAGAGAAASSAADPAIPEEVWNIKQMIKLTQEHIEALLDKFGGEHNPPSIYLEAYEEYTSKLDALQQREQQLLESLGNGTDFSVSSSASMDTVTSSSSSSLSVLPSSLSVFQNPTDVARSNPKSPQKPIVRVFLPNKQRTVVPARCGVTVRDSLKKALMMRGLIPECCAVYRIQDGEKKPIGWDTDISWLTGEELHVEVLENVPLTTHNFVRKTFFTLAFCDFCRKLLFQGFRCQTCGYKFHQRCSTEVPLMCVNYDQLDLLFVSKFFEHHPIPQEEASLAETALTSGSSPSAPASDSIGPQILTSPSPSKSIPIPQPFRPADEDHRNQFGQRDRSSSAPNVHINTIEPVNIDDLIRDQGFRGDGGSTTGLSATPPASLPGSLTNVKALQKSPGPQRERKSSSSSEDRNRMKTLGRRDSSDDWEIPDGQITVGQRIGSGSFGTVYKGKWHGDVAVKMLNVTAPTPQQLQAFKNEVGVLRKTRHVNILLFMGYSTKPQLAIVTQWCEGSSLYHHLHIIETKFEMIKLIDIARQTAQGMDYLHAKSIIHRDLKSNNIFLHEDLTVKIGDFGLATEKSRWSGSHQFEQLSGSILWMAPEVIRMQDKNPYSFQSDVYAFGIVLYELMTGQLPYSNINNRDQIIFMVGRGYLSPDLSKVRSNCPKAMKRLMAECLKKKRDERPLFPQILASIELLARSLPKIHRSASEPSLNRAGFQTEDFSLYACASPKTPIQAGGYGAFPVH
Method in brief: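 Steps: seed HiBiT-tagged A375 clone 1F10 cells; incubate 24 h, 37 °C, 5% CO2; add compound (11 half-log points from 1 μM, 0.2% DMSO); lyse with HiBiT detection reagent plus LgBiT for 10 min; read luminescence; fit % protein remaining against concentration.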

[2] = target: T2, BRAF G466V (Homo sapiens, UniProt P15056, G466V); assay: BRAF HiBiT degradation assay, C-terminal HiBiT-tagged BRAF G466V overexpressed in HCT-116 BRAF−/− cells (clone 8), Nano-Glo HiBiT Lytic assay; conditions: BRAF G466V (Class 3), HCT-116 BRAF−/− cells; for DC50: DC50 at 50% degradation; for Dmax: observed Dmax relative to DMSO control
T2 construct: Horizon Discovery (HCT-116 BRAF−/− cells); host or cells: HCT-116 BRAF−/− cells, clone 8, lentiviral transduction
T2 sequence (P15056 whole entry G466V): as the sequence (P15056 whole entry V600E, the tested form may be a part) above, with G466V, E600V counted along it
Method in brief: (§1)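 We quantified degradation of the C-terminally HiBiT-tagged, overexpressed mutant by lytic luminescence, normalizing to DMSO-treated cells with wild-type HCT-116 background subtracted. Dose series ran from 1 μM to 0.01 nM at 0.2% DMSO. Observed Dmax is % degraded at maximal effect.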

[3] = target: T3, BRAF G469A (Homo sapiens, UniProt P15056, G469A); assay: BRAF HiBiT degradation assay, C-terminal HiBiT-tagged BRAF G469A overexpressed in HCT-116 BRAF−/− cells (clone 34), Nano-Glo HiBiT Lytic assay; conditions: BRAF G469A (Class 2), HCT-116 BRAF−/− cells; for DC50: DC50 at 50% degradation; for Dmax: observed Dmax relative to DMSO control
T3 construct: Horizon Discovery (HCT-116 BRAF−/− cells); host or cells: HCT-116 BRAF−/− cells, clone 34, lentiviral transduction
T3 sequence (P15056 whole entry G469A): as the sequence (P15056 whole entry V600E, the tested form may be a part) above, with G469A, E600V counted along it
Method in brief: as §1

[4] = target: T4, BRAF D594G (Homo sapiens, UniProt P15056, D594G); assay: BRAF HiBiT degradation assay, C-terminal HiBiT-tagged BRAF D594G overexpressed in HCT-116 BRAF−/− cells (clone 63), Nano-Glo HiBiT Lytic assay; conditions: BRAF D594G (Class 3), HCT-116 BRAF−/− cells; for DC50: DC50 at 50% degradation; for Dmax: observed Dmax relative to DMSO control
T4 construct: Horizon Discovery (HCT-116 BRAF−/− cells); host or cells: HCT-116 BRAF−/− cells, clone 63, lentiviral transduction
T4 sequence (P15056 whole entry D594G): as the sequence (P15056 whole entry V600E, the tested form may be a part) above, with D594G, E600V counted along it
Method in brief: as §1

Row | SMILES | DC50 [1] [nM] | Dmax [1] [%] | DC50 [2] [nM] | Dmax [2] [%] | DC50 [3] [nM] | Dmax [3] [%] | DC50 [4] [nM] | Dmax [4] [%]
1 | O=C1CC[C@H](c2ccc(N3CCC(CN4CCN(c5ccc(-n6cc(-c7cc(C(F)F)cc(NS(=O)(=O)N8CCCC8)c7F)c(-c7ccncc7)n6)cc5)CC4)CC3)cc2)C(=O)N1 [Compound 349, N-[5-(difluoromethyl)-3-[1-(4-{4-[(1-{4-[(3R)-2,6-dioxopiperidin-3-yl]phenyl}piperidin-4-yl)methyl]piperazin-1-yl}phenyl)-3-(pyridin-4-yl)-1H-pyrazol-4-yl]-2-fluorophenyl]pyrrolidine-1-sulfonamide] | < 10 | > 70 | < 10 | > 70 | < 10 | > 70 | < 10 | > 70
2 | O=C1CC[C@H](c2ccc(N3CCC(CN4CCN(c5ccc(-n6cc(-c7cc(Cl)cc(NS(=O)(=O)N8CCCC8)c7F)c(-c7ccncc7)n6)cn5)CC4)CC3)cc2)C(=O)N1 [Compound 351, N-{5-chloro-3-[1-(6-{4-[(1-{4-[(3R)-2,6-dioxopiperidin-3-yl]phenyl}piperidin-4-yl)methyl]piperazin-1-yl}pyridin-3-yl)-3-(pyridin-4-yl)-1H-pyrazol-4-yl]-2-fluorophenyl}pyrrolidine-1-sulfonamide] | < 10 | > 70 | < 10 | > 70 | 10 to 50 | 30 to 70 | < 10 | 30 to 70
3 | O=C1CC[C@H](c2ccc(N3CCC(CN4CCN(c5cc(F)c(-n6cc(-c7cc(Cl)cc(NS(=O)(=O)N8CCCC8)c7F)c(-c7ccncc7)n6)cc5F)CC4)CC3)cc2)C(=O)N1 [Compound 353, N-{5-chloro-3-[1-(4-{4-[(1-{4-[(3R)-2,6-dioxopiperidin-3-yl]phenyl}piperidin-4-yl)methyl]piperazin-1-yl}-2,5-difluorophenyl)-3-(pyridin-4-yl)-1H-pyrazol-4-yl]-2-fluorophenyl}pyrrolidine-1-sulfonamide] | < 10 | > 70 | < 10 | > 70 | < 10 | > 70 | < 10 | > 70
4 | O=C1CCN(c2ccc(N3CCC(CN4CCN(c5ccc(-n6cc(-c7cc(Cl)cc(NS(=O)(=O)N8CCCC8)c7F)c(-c7ccncc7)n6)cc5)CC4)CC3)nc2)C(=O)N1 [Compound 355, N-[5-chloro-3-(1-{4-[4-({1-[5-(2,4-dioxo-1,3-diazinan-1-yl)pyridin-2-yl]piperidin-4-yl}methyl)piperazin-1-yl]phenyl}-3-(pyridin-4-yl)-1H-pyrazol-4-yl)-2-fluorophenyl]pyrrolidine-1-sulfonamide] | < 10 | > 70 | < 10 | > 70 | 10 to 50 | 30 to 70 | < 10 | 30 to 70
5 | O=C1CCN(c2ccc(N3CCC(CN4CCN(c5ccc(-n6cc(-c7cc(C(F)F)cc(NS(=O)(=O)N8CCCC8)c7F)c(-c7ccncc7)n6)c(F)c5)CC4)CC3)cc2)C(=O)N1 [Compound 356, N-[5-(difluoromethyl)-3-(1-{4-[4-({1-[4-(2,4-dioxo-1,3-diazinan-1-yl)phenyl]piperidin-4-yl}methyl)piperazin-1-yl]-2-fluorophenyl}-3-(pyridin-4-yl)-1H-pyrazol-4-yl)-2-fluorophenyl]pyrrolidine-1-sulfonamide] | 10 to 50 | > 70 | 10 to 50 | 30 to 70 | > 500 | < 30 | > 500 | 30 to 70
